Experimental data taken from ChEMBL document CHEMBL3137667, “[Drug-induced liver injury; fourteenth updated edition of the bibliographic database of liver injuries and related drugs]” (Gastroenterol Clin Biol, 2004).
*1 amine or outer side, *2 acyl side, *3 side chain or, on linkers, in order; H or OH if unused. Where a SMILES comes first, the peptide text is derived from it. Bridges are numbered along the chain shown (N, C = ends). [ ]: non-standard residue; d: D form. The star is where a group is joined. X1 = O=C1C[C@@H](C(=O)[*:2])N([*:1])C[C@H]1CS[C@@H]1CN2CCC1CC2; NMePhe(4-NMe2) = CN[C@@H](Cc1ccc(N(C)C)cc1)C(=O)O; Picolinoyl(3-OH) = O=C(c1ncccc1O)*; Phg = N[C@H](C(=O)O)c1ccccc1; dAbu = CC[C@@H](N)C(=O)O

Experiments:
[1] = Highest frequency of moderate liver toxicity observed during clinical trials, expressed as a percentage. [column '% BIOL' in source]; settings: human
[2] = human, serum
[3] = human
[4] = human; remark: listed apart in the source
[5] = human; remark: listed apart in the source
[6] = human; remark: listed apart in the source
[7] = Highest frequency of acute liver toxicity observed during clinical trials, expressed as a percentage. [column '% AIGUE' in source]; settings: human
[8] = human; remark: listed apart in the source
[9] = human; remark: listed apart in the source
[10] = human, serum; remark: listed apart in the source
[11] = human; remark: listed apart in the source
[12] = human; remark: listed apart in the source
[13] = human, serum, 4383 h
[14] = human; remark: listed apart in the source
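For Hepatotoxicity (association with vascular disease) in this document: count of indexed literature references reporting vascular liver injury in humans, e.g. peliosis hepatitis, hepatic veno-occlusive disease or Budd-Chiari syndrome.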
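For Hepatotoxicity (benign tumour) in this document: value is a count of indexed literature references citing a benign tumour confirmed by histopathology.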
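For Hepatotoxicity (choleostasis) in this document: human cholestatic liver injury, shown by histopathology or by peak ALT or AST elevation over alkaline phosphatase ratio below 2, value counts indexed literature reports.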
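For Hepatotoxicity (chronic liver disease) in this document: chronic liver injury confirmed by histopathology or persistently raised serum aminotransferase activity beyond 6 months, value given as the count of indexed literature references.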
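For Hepatotoxicity (cirrhosis) in this document: value is a count of indexed literature references reporting cirrhosis confirmed by histopathology.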
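For Hepatotoxicity (cytolytic) in this document: human cytolytic liver injury, shown by histopathology or by a ratio above 5 of peak ALT or AST elevation to alkaline phosphatase elevation, value counts indexed references.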
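For Hepatotoxicity (granulomatous hepatitis) in this document: value is a count of indexed literature references reporting granulomatous liver disease confirmed by histopathology.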
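For Hepatotoxicity (malignant tumour) in this document: malignant tumour confirmed by histopathology, value gives the count of indexed literature references reporting it.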
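For Hepatotoxicity (severe hepatitis) in this document: human clinical data: severe hepatitis, meaning potentially life-threatening liver failure or clinically observed cases, the value counts how many indexed literature references report it.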
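For Hepatotoxicity (steatosis) in this document: steatosis confirmed by histopathology, value is the count of indexed references.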

Cc1ncc(-c2csc(N=C(N)N)n2)[nH]1 [ZALTIDINE]
Hepatotoxicity (moderate) [1]: 94% | Hepatotoxicity (acute) [2]: 1 | Hepatotoxicity (severe hepatitis) [3]: 0 | Hepatotoxicity (cirrhosis) [4]: 0 | Hepatotoxicity (steatosis) [5]: 0 | Hepatotoxicity (association with vascular disease) [6]: 0 | Hepatotoxicity (acute) [7]: 8% | Hepatotoxicity (choleostasis) [8]: 0 | Hepatotoxicity (malignant tumour) [9]: 0 | Hepatotoxicity (moderate) [10]: 1 | Hepatotoxicity (granulomatous hepatitis) [11]: 0 | Hepatotoxicity (benign tumour) [12]: 0 | Hepatotoxicity (chronic liver disease) [13]: 0 | Hepatotoxicity (cytolytic) [14]: 1

Cc1cc2c(C(C)C)c(O)c(O)c(C=O)c2c(O)c1-c1c(C)cc2c(C(C)C)c(O)c(O)c(C=O)c2c1O [GOSSYPOL]
Hepatotoxicity (moderate) [1]: 93% | Hepatotoxicity (acute) [2]: 0 | Hepatotoxicity (severe hepatitis) [3]: 0 | Hepatotoxicity (cirrhosis) [4]: 0 | Hepatotoxicity (steatosis) [5]: 0 | Hepatotoxicity (association with vascular disease) [6]: 0 | Hepatotoxicity (acute) [7]: 0% | Hepatotoxicity (choleostasis) [8]: 0 | Hepatotoxicity (malignant tumour) [9]: 0 | Hepatotoxicity (moderate) [10]: 1 | Hepatotoxicity (granulomatous hepatitis) [11]: 0 | Hepatotoxicity (benign tumour) [12]: 0 | Hepatotoxicity (chronic liver disease) [13]: 0 | Hepatotoxicity (cytolytic) [14]: 0

O=C(OCC(COC(=O)c1cccnc1)(COC(=O)c1cccnc1)COC(=O)c1cccnc1)c1cccnc1 [NICERITROL]
Hepatotoxicity (moderate) [1]: 5% | Hepatotoxicity (acute) [2]: 0 | Hepatotoxicity (severe hepatitis) [3]: 0 | Hepatotoxicity (cirrhosis) [4]: 0 | Hepatotoxicity (steatosis) [5]: 0 | Hepatotoxicity (association with vascular disease) [6]: 0 | Hepatotoxicity (acute) [7]: 0% | Hepatotoxicity (choleostasis) [8]: 0 | Hepatotoxicity (malignant tumour) [9]: 0 | Hepatotoxicity (moderate) [10]: 1 | Hepatotoxicity (granulomatous hepatitis) [11]: 0 | Hepatotoxicity (benign tumour) [12]: 0 | Hepatotoxicity (chronic liver disease) [13]: 0 | Hepatotoxicity (cytolytic) [14]: 0

CNC(=O)[C@@H](NC(=O)[C@H](CC(C)C)[C@H](O)C(=O)NO)C(C)(C)C
Hepatotoxicity (moderate) [1]: 0% | Hepatotoxicity (acute) [2]: 0 | Hepatotoxicity (severe hepatitis) [3]: 0 | Hepatotoxicity (cirrhosis) [4]: 0 | Hepatotoxicity (steatosis) [5]: 0 | Hepatotoxicity (association with vascular disease) [6]: 0 | Hepatotoxicity (acute) [7]: 0% | Hepatotoxicity (choleostasis) [8]: 0 | Hepatotoxicity (malignant tumour) [9]: 0 | Hepatotoxicity (moderate) [10]: 1 | Hepatotoxicity (granulomatous hepatitis) [11]: 0 | Hepatotoxicity (benign tumour) [12]: 0 | Hepatotoxicity (chronic liver disease) [13]: 0 | Hepatotoxicity (cytolytic) [14]: 0

O=C(O)P(=O)(O)O [FOSCARNET]
Hepatotoxicity (moderate) [1]: 12% | Hepatotoxicity (acute) [2]: 0 | Hepatotoxicity (severe hepatitis) [3]: 0 | Hepatotoxicity (cirrhosis) [4]: 0 | Hepatotoxicity (steatosis) [5]: 0 | Hepatotoxicity (association with vascular disease) [6]: 0 | Hepatotoxicity (acute) [7]: 0% | Hepatotoxicity (choleostasis) [8]: 0 | Hepatotoxicity (malignant tumour) [9]: 0 | Hepatotoxicity (moderate) [10]: 2 | Hepatotoxicity (granulomatous hepatitis) [11]: 0 | Hepatotoxicity (benign tumour) [12]: 0 | Hepatotoxicity (chronic liver disease) [13]: 0 | Hepatotoxicity (cytolytic) [14]: 0

CCN[C@@H]1C[C@H](N)[C@@H](O[C@H]2OC(CN)=CC[C@H]2N)[C@H](O)[C@H]1O[C@H]1OC[C@](C)(O)[C@H](NC)[C@H]1O [NETILMICIN]
Hepatotoxicity (moderate) [1]: 29.4% | Hepatotoxicity (acute) [2]: 0 | Hepatotoxicity (severe hepatitis) [3]: 0 | Hepatotoxicity (cirrhosis) [4]: 0 | Hepatotoxicity (steatosis) [5]: 0 | Hepatotoxicity (association with vascular disease) [6]: 0 | Hepatotoxicity (acute) [7]: 0% | Hepatotoxicity (choleostasis) [8]: 0 | Hepatotoxicity (malignant tumour) [9]: 0 | Hepatotoxicity (moderate) [10]: 5 | Hepatotoxicity (granulomatous hepatitis) [11]: 0 | Hepatotoxicity (benign tumour) [12]: 0 | Hepatotoxicity (chronic liver disease) [13]: 0 | Hepatotoxicity (cytolytic) [14]: 0

CCCCCN(C)CCC(O)(P(=O)(O)O)P(=O)(O)O [IBANDRONIC ACID]
Hepatotoxicity (moderate) [1]: 0.6% | Hepatotoxicity (acute) [2]: 0 | Hepatotoxicity (severe hepatitis) [3]: 0 | Hepatotoxicity (cirrhosis) [4]: 0 | Hepatotoxicity (steatosis) [5]: 0 | Hepatotoxicity (association with vascular disease) [6]: 0 | Hepatotoxicity (acute) [7]: 0% | Hepatotoxicity (choleostasis) [8]: 0 | Hepatotoxicity (malignant tumour) [9]: 0 | Hepatotoxicity (moderate) [10]: 1 | Hepatotoxicity (granulomatous hepatitis) [11]: 0 | Hepatotoxicity (benign tumour) [12]: 0 | Hepatotoxicity (chronic liver disease) [13]: 0 | Hepatotoxicity (cytolytic) [14]: 0

NS(=O)(=O)Cc1noc2ccccc12 [ZONISAMIDE]
Hepatotoxicity (moderate) [1]: 4.2% | Hepatotoxicity (acute) [2]: 0 | Hepatotoxicity (severe hepatitis) [3]: 0 | Hepatotoxicity (cirrhosis) [4]: 0 | Hepatotoxicity (steatosis) [5]: 0 | Hepatotoxicity (association with vascular disease) [6]: 0 | Hepatotoxicity (acute) [7]: 0% | Hepatotoxicity (choleostasis) [8]: 0 | Hepatotoxicity (malignant tumour) [9]: 0 | Hepatotoxicity (moderate) [10]: 2 | Hepatotoxicity (granulomatous hepatitis) [11]: 0 | Hepatotoxicity (benign tumour) [12]: 0 | Hepatotoxicity (chronic liver disease) [13]: 0 | Hepatotoxicity (cytolytic) [14]: 0

NEDAPLATIN
Hepatotoxicity (moderate) [1]: 19.2% | Hepatotoxicity (acute) [2]: 0 | Hepatotoxicity (severe hepatitis) [3]: 0 | Hepatotoxicity (cirrhosis) [4]: 0 | Hepatotoxicity (steatosis) [5]: 0 | Hepatotoxicity (association with vascular disease) [6]: 0 | Hepatotoxicity (acute) [7]: 0% | Hepatotoxicity (choleostasis) [8]: 0 | Hepatotoxicity (malignant tumour) [9]: 0 | Hepatotoxicity (moderate) [10]: 1 | Hepatotoxicity (granulomatous hepatitis) [11]: 0 | Hepatotoxicity (benign tumour) [12]: 0 | Hepatotoxicity (chronic liver disease) [13]: 0 | Hepatotoxicity (cytolytic) [14]: 0

O=C1NC(=S)NC(=O)C1C(=O)Nc1ccccc1 [MERBARONE]
Hepatotoxicity (moderate) [1]: 28.6% | Hepatotoxicity (acute) [2]: 1 | Hepatotoxicity (severe hepatitis) [3]: 0 | Hepatotoxicity (cirrhosis) [4]: 0 | Hepatotoxicity (steatosis) [5]: 0 | Hepatotoxicity (association with vascular disease) [6]: 0 | Hepatotoxicity (acute) [7]: 3.8% | Hepatotoxicity (choleostasis) [8]: 0 | Hepatotoxicity (malignant tumour) [9]: 0 | Hepatotoxicity (moderate) [10]: 3 | Hepatotoxicity (granulomatous hepatitis) [11]: 0 | Hepatotoxicity (benign tumour) [12]: 0 | Hepatotoxicity (chronic liver disease) [13]: 0 | Hepatotoxicity (cytolytic) [14]: 0

CN(C)CCC=C1c2ccccc2C=Cc2ccccc21 [CYCLOBENZAPRINE]
Hepatotoxicity (moderate) ([1]; Liver): 0% | Hepatotoxicity (acute) [2]: 1 | Hepatotoxicity (severe hepatitis) ([3]; Liver): 0 | Hepatotoxicity (cirrhosis) [4]: 0 | Hepatotoxicity (steatosis) [5]: 0 | Hepatotoxicity (association with vascular disease) [6]: 0 | Hepatotoxicity (acute) ([7]; Liver): 0% | Hepatotoxicity (choleostasis) ([8]; Liver): 0 | Hepatotoxicity (malignant tumour) [9]: 0 | Hepatotoxicity (moderate) [10]: 1 | Hepatotoxicity (granulomatous hepatitis) ([11]; Liver): 0 | Hepatotoxicity (benign tumour) [12]: 0 | Hepatotoxicity (chronic liver disease) [13]: 0 | Hepatotoxicity (cytolytic) ([14]; Liver): 0

CCCCC(C)(O)C/C=C/[C@H]1[C@H](O)CC(=O)[C@@H]1CCCCCCC(=O)OC (stereo not given in full) [MISOPROSTOL]
Hepatotoxicity (moderate) [1]: 16.7% | Hepatotoxicity (acute) [2]: 0 | Hepatotoxicity (severe hepatitis) [3]: 0 | Hepatotoxicity (cirrhosis) [4]: 0 | Hepatotoxicity (steatosis) [5]: 0 | Hepatotoxicity (association with vascular disease) [6]: 0 | Hepatotoxicity (acute) [7]: 0% | Hepatotoxicity (choleostasis) [8]: 0 | Hepatotoxicity (malignant tumour) [9]: 0 | Hepatotoxicity (moderate) [10]: 6 | Hepatotoxicity (granulomatous hepatitis) [11]: 0 | Hepatotoxicity (benign tumour) [12]: 0 | Hepatotoxicity (chronic liver disease) [13]: 0 | Hepatotoxicity (cytolytic) [14]: 0

CCN(CC)CCS(=O)(=O)[C@@H]1CCN2C(=O)c3coc(n3)CC(=O)C[C@H](O)/C=C(C)/C=C/CNC(=O)/C=C/[C@@H](C)[C@@H](C(C)C)OC(=O)[C@@H]12.CC[C@H]1NC(=O)[C@@H](NC(=O)c2ncccc2O)[C@@H](C)OC(=O)[C@H](c2ccccc2)NC(=O)[C@@H]2CC(=O)[C@H](CS[C@@H]3CN4CCC3CC4)CN2C(=O)[C@H](Cc2ccc(N(C)C)cc2)N(C)C(=O)[C@@H]2CCCN2C1=O [QUINUPRISTIN/DALFOPRISTIN] ({Picolinoyl(3-OH)}-T[dAbu]P[NMePhe(4-NMe2)][X1][Phg]; ester 1-C)
Hepatotoxicity (moderate) [1]: 7.1% | Hepatotoxicity (acute) [2]: 0 | Hepatotoxicity (severe hepatitis) [3]: 0 | Hepatotoxicity (cirrhosis) [4]: 0 | Hepatotoxicity (steatosis) [5]: 0 | Hepatotoxicity (association with vascular disease) [6]: 0 | Hepatotoxicity (acute) [7]: 0% | Hepatotoxicity (choleostasis) [8]: 0 | Hepatotoxicity (malignant tumour) [9]: 0 | Hepatotoxicity (moderate) [10]: 8 | Hepatotoxicity (granulomatous hepatitis) [11]: 0 | Hepatotoxicity (benign tumour) [12]: 0 | Hepatotoxicity (chronic liver disease) [13]: 0 | Hepatotoxicity (cytolytic) [14]: 0

COC(=O)C1=C(C)NC(C)=C(C(=O)OCC(C)C)C1c1ccccc1[N+](=O)[O-] (stereo not given) [NISOLDIPINE]
Hepatotoxicity (moderate) [1]: 12.5% | Hepatotoxicity (acute) [2]: 0 | Hepatotoxicity (severe hepatitis) [3]: 0 | Hepatotoxicity (cirrhosis) [4]: 0 | Hepatotoxicity (steatosis) [5]: 0 | Hepatotoxicity (association with vascular disease) [6]: 0 | Hepatotoxicity (acute) [7]: 0% | Hepatotoxicity (choleostasis) [8]: 0 | Hepatotoxicity (malignant tumour) [9]: 0 | Hepatotoxicity (moderate) [10]: 1 | Hepatotoxicity (granulomatous hepatitis) [11]: 0 | Hepatotoxicity (benign tumour) [12]: 0 | Hepatotoxicity (chronic liver disease) [13]: 0 | Hepatotoxicity (cytolytic) [14]: 0

CC(C)NCC(O)COc1ccc(COCCOC(C)C)cc1 (stereo not given) [BISOPROLOL]
Hepatotoxicity (moderate) [1]: 7.1% | Hepatotoxicity (acute) [2]: 0 | Hepatotoxicity (severe hepatitis) [3]: 0 | Hepatotoxicity (cirrhosis) [4]: 0 | Hepatotoxicity (steatosis) [5]: 0 | Hepatotoxicity (association with vascular disease) [6]: 0 | Hepatotoxicity (acute) [7]: 0% | Hepatotoxicity (choleostasis) [8]: 0 | Hepatotoxicity (malignant tumour) [9]: 0 | Hepatotoxicity (moderate) [10]: 3 | Hepatotoxicity (granulomatous hepatitis) [11]: 0 | Hepatotoxicity (benign tumour) [12]: 0 | Hepatotoxicity (chronic liver disease) [13]: 0 | Hepatotoxicity (cytolytic) [14]: 0
